Assay results reported in PMC8344021, “Discovery of Small Molecule Bak Activator for Lung Cancer Therapy” (Theranostics, 2021).

What was measured:
[1] = test system: A549-P, A549-IRR, H358-P, H358-IRR, H460-P and H460-IRR cells; experiment: Colony formation assay in parental and radioresistant cells; type: cell-based, human; details: 0.5 µM
Experimental: To further investigate whether Bak contributes to radioresistance, we established three lung cancer cell lines with ionizing radiation resistance (i.e. A549-IRR, H358-IRR and H460-IRR) as described, [52], [53]. […] A549-P, […] and H460-P cells remained sensitive to IR, but A549-IRR, H358-IRR and H460-IRR became insensitive to IR. […] To further test this in vivo, NSCLC xenografts derived from A549-P and A549-IRR cell lines were treated with IR (2Gy/exposure, every other day for total of 5 times) or BKA-073 (15 mg/kg/d) for 4 weeks. We observed that lung cancer xenografts derived from A549-IRR cells were resistant to IR treatment whereas xenografts derived from A549-P were sensitive to IR treatment (Figure S7C).
Figure S7. BKA-073 overcomes radioresistance of lung cancer in vitro and in vivo. (A) Expression levels of Bak in A549-P versus A549-IRR cells, H358-P versus H358 -IRR cells or H460-P versus H460-IRR cells were analyzed by Western blot. (B) A549-P, A549-IRR, H358-P, H358-IRR, H460-P and H460-IRR cells were treated with IR (5Gy), BKA -073 (0.5 µM), followed by colony formation assay. Data represent the mean ± SD, n = 3 per group. ***P < 0.001, ns: not significant, by 2-tailed t test. […]
Tumor volume was measured once every 2 days. After treatment, mice were sacrificed and tumors were removed and analyzed. […]

[2] = test system: mitochondria isolated from A549 cells; experiment: Cyt c release from isolated mitochondria; type: biochemical, human; details: 1 μM, 30 min, 30 °C
Experimental: Figure 3 Bak is required for BKA-073 induction of mitochondrial priming, Cyt c release and apoptotic cell death. (A) Levels of Bak and Bax were analyzed by Western blot in parental, Bak ^-/-, Bax ^-/- or Bax/Bak double-knockout (DKO) A549 cells. (B-C) Parental, Bak ^-/-, Bax ^-/- or DKO A549 cells were treated with BKA-073 (1μM) for 16h or 72h, followed by analysis of dynamic BH3 profiling (B) or apoptotic cell death (C), respectively. Data represent the mean ± SD, n = 3 per group. ***P < 0.001, by 2-tailed t test. (D) Parental, Bak ^-/-, Bax ^-/- or DKO A549 cells were treated with BKA-073 (1μM) for 24 h. Mitochondrial and cytosolic fractions were isolated. Levels of Cyt c in these two fractions were analyzed by western blot. (E) Mitochondria were isolated from parental, Bak ^-/-, Bax ^-/- or DKO A549 cells. The isolated mitochondria were then treated with BKA-073 (1μM) in mitochondrial buffer for 30 min at 30 °C. After centrifugation, Cyt c in supernatant fraction (i.e. Cyt c release) and Cyt c in mitochondrial pellet were analyzed by western blot.
To further test whether Bak is required for BKA-073 induction of Cyt c release, A549 parental, Bak^-/-, Bax^-/- and DKO cells were treated with BKA-073 (1 μM) for 24h, followed by analysis of Cyt c release from mitochondria. […] After centrifugation at 13000 g for 5 min, Cyt c in the supernatant (i.e., Cyt c release) was analyzed by Western blot.

[3] = test system: MDA-MB-231, MCF7, HCT-116, Ramos, OPM-1, PANC-1 and U2OS cell lines; experiment: Dynamic BH3 profiling in other types of cancer cell lines; type: cell-based, human; details: 1μM, 16h
Experimental: DBP using Bim peptide was carried out as described previously [24]-[26]. After treatment with BKA-073, venetoclax (ABT-199) or DMSO control for 16h, cells were collected, washed and resuspended at 2 x 10^6 cells/ mL in mannitol experimental buffer (MEB) [150 mM D-mannitol, 10 mM HEPES-KOH (pH 7.5), 50 mM KCl, 20 μM EGTA, 20 μM EDTA, 0.1% BSA, and 5 mM succinate] as described. One volume of the 4x cell suspension was added to one volume of a 4x dye solution containing 4 μM JC-1, […] oligomycin, 0.02% digitonin, 20mM β-mercaptoethanol in MEB. The 2x cell/dye mixture was allowed to rest for 5-10 min at room temperature to allow for permeabilization and JC-1 staining. A total of 15μl of the 2x cell/dye mixture was loaded into a 384-well plate that contained 15µL of Bim BH3 peptide (0.03, 0.1, 0.3, 1, and 3 μM) in MEB, shaken for 15 s inside the reader, and the fluorescence at 590 nm monitored every 5 min for 180 min at 32 °C. The dynamic BH3 profile (∆ % Priming) was calculated as described [24]-[26].
Figure S2. BKA-073 induces mitochondrial priming and apoptosis in various type of cancers. (A) Expression levels of Bak were analyzed by Western blot in various type of cancer cell lines. (B-C) Various type of cancer cell lines were treated with BKA -073 (1µM) for 16h or 72h, followed by analysis of dynamic BH3 profiling (B) or apoptotic cell death (C), respectively. […]

**Q.** For COc1ccc2nc3ccccc3c(NCCNCC(C)O)c2c1 (centres unmarked) [BKA-073], which “sensitivity (colony formation)” value ([1]; parental cell lines (A549-P, H358-P, H460-P)) is on record?
**A.** sensitive

**Q.** What about the “sensitivity (colony formation)” value ([1]; radioresistant cell lines (A549-IRR, H358-IRR, H460-IRR)) of the same molecule?
**A.** sensitive

**Q.** What about the “Cyt c release from isolated mitochondria” value ([2]; mitochondria from A549 Bax-/- cells) of the same molecule?
**A.** induced Cyt c release

**Q.** And the “Cyt c release from isolated mitochondria” value ([2]; mitochondria from A549 parental cells)?
**A.** induced Cyt c release

**Q.** And the “induction of mitochondrial priming” value [3]?
**A.** potently induced
